Data published in patent publication US20220152044A1, “TREATMENT OF INFLAMMATORY DISEASES OF THE CENTRAL NERVOUS SYSTEM” (PALMAYA PTY LTD, priority 2019, published 2022).

Columns and labels:
HPA axis = HPA axis in stressed animals; assay type: in vivo
Description: For this reason the combination of sustained release naltrexone and sustained release flumazenil using injections, implants or infusions would be expected to limit neuro-inflammatory diseases and their symptoms.

any dependency = experiment: Detoxification from any dependency, 108 patients followed; assay type: in vivo, human
[1] = test system: benzodiazepine detoxification; experiment: Benzodiazepine detoxification with subcutaneous flumazenil infusion; assay type: in vivo, human
Experimental: Benzodiazepines bring relief to stress and are involved in the release of dopamine. As with all other significant addictions, self-control is extremely damaged in patients with a severe benzodiazepine addiction. Our observations of the treatment of poly-drug dependency which includes benzodiazepine usually responds well to the use of flumazenil at 40-160 μg/hour together with 40-160 μg/hour or greater. […] The continual delivery of flumazenil at this rate allows most patients to reduce their benzodiazepine dosing over a few days to a week or two. The control of symptoms as these patients cease their benzodiazepine is controlled so that the majority of patients can cease benzodiazepine use successfully.
We have used our solution of flumazenil at 16 mg per 30 ml with a pH of 4±1 as a subcutaneous infusion at 40 to 160 μg per hour as our standard treatment to reduce the symptoms associated with benzodiazepine detoxification.
Anticonvulsants, such as sodium valproate at 500 to 1000 mg per day were used for the first 10 days of flumazenil treatment to reduce the risk of epileptic seizures. […] The infusion may require several weeks of treatment and can be followed up with a flumazenil infusion delivering 40 to 160 μg per hour or more, as required to complete detoxification from the opioid.

alcohol patients = experiment: Survey of 84 alcohol patients after flumazenil infusions or implants; assay type: in vivo, human
Description: In a survey of 84 alcohol patients the percent of patients drinking daily fell from 14.5% to 5.5% following flumazenil infusions or implants.

cannabis use = experiment: Survey of 109 patients, cannabis use after flumazenil infusion; assay type: in vivo, human
Description: In a survey of 109 patients daily use was close to halved from 10% to 5.5%.

migraine patients = experiment: Two migraine patients, follow-up during and after flumazenil delivery; assay type: in vivo, human
Experimental: Two migraine patients initially described migraine symptoms, are both symptom free for more than a year. No repeat treatments occurred in the second of the migraine patients, and as such, believe that the treatment might be curative in some patients.
In these two patients treated for migraines, the first patient the history of migraines affecting their required an infusion initially, and then flumazenil implants maintaining at least 1 ng per ml of flumazenil to achieve relief of symptoms. In a second patient we noted that the symptom relief has lasted for more than 12 months when treatment with a flumazenil implant lasting an estimated six months occurred.

[2] = test system: smoking of nicotine cigarettes; experiment: Smoking of nicotine cigarettes in a group of 80 patients treated with flumazenil; assay type: in vivo, human
Description: We have found a reduction in smoking of nicotine cigarettes with the use of flumazenil. We were able to document that those smoking changed from 82.7% before treatment to 75% following treatment in a group of 80 patients being treated with flumazenil.

opioid use = experiment: Abstinence from opioids in 108 patients treated with flumazenil; assay type: in vivo, human; conditions: 91.2% before flumazenil
Description: In the 108 patients treated with flumazenil abstinence from opioids increased from 91.2% before flumazenil to 100% following the flumazenil treatment.

[3] = Swelling at the site of subcutaneous injection of flumazenil solution; assay type: in vivo, human; conditions: 16 mg per 30 ml solution, 4 mg in 7.5 ml a day versus standard ampoules 4 mg in 40 ml
Experimental: In our experience, this is the first flumazenil solution prepared for subcutaneous delivery making it possible to deliver 4 mg of flumazenil in a volume of just 7.5 ml per day. Clinically, this is preferred to the standard flumazenil preparations, which involve injecting 4 mg in 40 ml per day. For example, the lower volume results in less swelling at the site of injection.
During our development of flumazenil ampoules we have found the preferred pH is about 4±1. In addition, the volume and dilution of flumazenil is preferably 16 mg per 30 ml. In our experience this was the first flumazenil made for subcutaneous delivery, and therefore, a dose of flumazenil at 4 mg can be administered in a volume of only 7.5 ml a day. Clinically, this is more convenient than the standard flumazenil ampoules which involve injecting 4 mg in a volume of 40 ml. […] In addition, the packaging of a dose of flumazenil of 16 mg in 30 ml enables clinical staff to use one ampoule for 4 days at 4 mg a day and one ampoule for 8 days at doses of 2 mg per day.

Structure (SMILES): CCOC(=O)c1ncn2c1CN(C)C(=O)c1cc(F)ccc1-2 [flumazenil]
- return of the HPA axis to normal (HPA axis): help return the HPA axis
- daily use of alcohol, smoking, cannabis, amphetamines, opioids and other drug use (any dependency): reduction in daily use
- blocking of positive modulation of the GABAA receptor with benzodiazepines ([1]; flumazenil at 40-160 μg/hour): not significantly blocked
- time to cease benzodiazepine use after commencement of the infusion ([1]; subcutaneous infusion 40 to 160 μg per hour): within a few days to a week
- craving for benzodiazepines ([1]; subcutaneous infusion 40 to 160 μg per hour, 16 mg per 30 ml, pH 4±1): decrease in their craving for benzodiazepines
- percentage abstinent to alcohol following treatment (alcohol patients; 53.1% before): 77.1%
- percent of patients drinking daily following treatment (alcohol patients; flumazenil infusions or implants, 14.5% before): 5.5%
- daily cannabis use following treatment (cannabis use; 109 patients, 10% before): 5.5%
- abstinence from cannabis following treatment (cannabis use; 109 patients, 75% before): 83.5%
- patient-reported cannabis cessation symptoms (nausea day one, anxiety, sleep, paranoid and psychotic thinking, suicidal thoughts) (cannabis use; patients who presented to cease cannabis): anxiety was decreased and sleep was better
- flumazenil level maintained by implants to achieve relief of symptoms (migraine patients; first migraine patient, infusion initially then implants): at least 1 ng per ml
- duration of symptom relief (migraine patients; second patient, flumazenil implant lasting an estimated six months, no repeat treatment): more than 12 months
- symptom free period (migraine patients; two migraine patients): more than a year
- fall in those using (smoking) daily ([2]; from 78.1% to 71.4%): 4%
- those smoking following treatment ([2]; group of 80 patients, 82.7% before treatment): 75%
- those using (smoking) daily following treatment ([2]; same population, 78.1% before treatment): 71.4%
- abstinence from opioids following treatment (opioid use): 100%
- swelling of the tissues at the site of injection [3]: less swelling
